Source: patent US4473578A, “β-Lactam antibiotics and their use” (Beecham Group Limited, priority 1979, dated 1984)

How the values were obtained:
Assay in all cases: Antibacterial effectiveness in agar
Assay type in all cases: cell-based
[1] = test system: Bacteroides fragilis WS1; settings: Bacteroides fragilis, WS1
Excerpt: (§1) b. Antibacterial effectiveness of the compound of […]

[2] = test system: Escherichia coli E8; settings: Escherichia coli, E8
Excerpt: as §1

[3] = test system: Escherichia coli E96R+
Excerpt: as §1

[4] = test system: Enterobacter cloacea T749; settings: Enterobacter, T749
Excerpt: as §1

[5] = test system: Staphylococcus aureus Smith; settings: Staphylococcus aureus
Excerpt: as §1

[6] = test system: Escherichia coli NCTC 15418; settings: Escherichia coli, NCTC15418
Excerpt: as §1

[7] = test system: Staphylococcus aureus T150+; settings: Staphylococcus aureus
Excerpt: as §1

[8] = test system: Escherichia coli JT4R+
Excerpt: as §1

[9] = test system: Serratia marcescens Wo146; settings: Serratia marcescens, WO146
Excerpt: as §1

[10] = test system: Staphylococcus aureus T67+; settings: Staphylococcus aureus
Excerpt: as §1

[11] = test system: Pseudomonas aeruginosa W975; settings: Pseudomonas aeruginosa, W975
Excerpt: as §1

[12] = test system: Proteus rettgeri R110; settings: Providencia rettgeri, R110
Excerpt: as §1

[13] = test system: Staphylococcus aureus ME9+; settings: Staphylococcus aureus
Excerpt: as §1

[14] = test system: Enterbacter aerogenes NCTC 10006
Excerpt: as §1

[15] = test system: Escherichia coli 5; settings: Escherichia coli, 5
Excerpt: as §1

[16] = test system: Klebsiella aerogenes R112; settings: Klebsiella aerogenes, R112
Excerpt: as §1

[17] = test system: Bacteroides fragilis VP1 8249; settings: Bacteroides fragilis, VP18249
Excerpt: as §1

[18] = test system: Bacteroides fragilis B3; settings: Bacteroides fragilis, B3
Excerpt: as §1

[19] = test system: Proteus morganii T361; settings: Morganella morganii, T361
Excerpt: as §1

[20] = test system: Enterobacter cloacea NCTC 10005; settings: Enterobacter, NCTC10005
Excerpt: as §1

[21] = test system: Bacteroides fragilis WS12; settings: Bacteroides fragilis, WS12
Excerpt: as §1

[22] = test system: Staphylococcus aureus ATCC 25923; settings: Staphylococcus aureus, ATCC25923
Excerpt: as §1

[23] = test system: Escherichia coli JT414C+; settings: Escherichia coli
Excerpt: as §1

[24] = test system: Proteus rettgeri I; settings: Providencia rettgeri
Excerpt: as §1

[25] = test system: Bacteroides fragilis BC16; settings: Bacteroides fragilis, BC16
Excerpt: as §1

[26] = test system: Proteus morganii I; settings: Morganella morganii
Excerpt: as §1

[27] = test system: Escherichia coli JT425C+; settings: Escherichia coli
Excerpt: as §1

[28] = test system: Bacteroides fragilis WS41; settings: Bacteroides fragilis, WS41
Excerpt: as §1

[29] = test system: Proteus mirabilis T318; settings: Proteus mirabilis, T318
Excerpt: as §1

[30] = test system: Serratia marcescens SM27; settings: Serratia marcescens, SM27
Excerpt: as §1

[31] = test system: Proteus vulgaris NCTC 4395; settings: Proteus vulgaris, NCTC4395
Excerpt: as §1

[32] = test system: Escherichia coli Ba78R+; settings: Escherichia coli
Excerpt: as §1

[33] = test system: Bacteroides fragilis BC4; settings: Bacteroides fragilis, BC4
Excerpt: as §1

[34] = test system: Enterbacter aerogenes T660
Excerpt: as §1

[35] = test system: Pseudomonas aeruginosa NCTC 10662; settings: Pseudomonas aeruginosa, NCTC10662
Excerpt: as §1

[36] = test system: Escherichia coli JT20R+
Excerpt: as §1

[37] = test system: Citrobacter freundii T221; settings: Citrobacter freundii, T221
Excerpt: as §1

[38] = test system: Citrobacter freundii W18; settings: Citrobacter freundii, W18
Excerpt: as §1

[39] = test system: Bacteroides fragilis 2118; settings: Bacteroides fragilis, 2118
Excerpt: as §1

[40] = test system: Pseudomonas aeruginosa Dalgleish; settings: Pseudomonas aeruginosa
Excerpt: as §1

[41] = test system: Escherichia coli JT1; settings: Escherichia coli, JT1
Excerpt: as §1

[42] = test system: Streptococcus faecalis T1101; settings: Enterococcus faecalis, T1101
Excerpt: as §1

[43] = test system: Klebsiella aerogenes I281; settings: Klebsiella aerogenes, I281
Excerpt: as §1

[44] = test system: Klebsiella aerogenes Va2R+; settings: Klebsiella aerogenes
Excerpt: as §1

[45] = test system: Proteus mirabilis 889; settings: Proteus mirabilis, 889
Excerpt: as §1

[46] = test system: Klebsiella aerogenes T219; settings: Klebsiella aerogenes, T219
Excerpt: as §1

[47] = test system: Proteus vulgaris X; settings: Proteus vulgaris
Excerpt: as §1

[48] = test system: Streptococcus faecalis C90; settings: Enterococcus faecalis, C90
Excerpt: as §1

With `CCSC1=C(C(=O)[O-])N2C(=O)[C@@H]([C@H](C)OS(=O)(=O)[O-])[C@H]2C1.[Na+].[Na+]` [Example 14, Disodium (5R,6R)-3-ethylthio-6-[(S)-1-sulphonato-oxyethyl]-7-oxo-1-azabicyclo[3.2.0]hept-2-ene-2-carboxylate] the MIC [1] was 6.2 µg/mL, the MIC [2] was at most 0.1 µg/mL and the MIC [3] was at most 0.1 µg/mL. For the same compound, the MIC [4] was 6.2 µg/mL, the MIC [5] was 0.4 µg/mL and the MIC [6] was at most 0.1 µg/mL. It also gave an MIC [7] of 0.4 µg/mL, an MIC [8] of 0.4 µg/mL and an MIC [9] of 1.6 µg/mL. It also gave an MIC [10] of 0.8 µg/mL, an MIC [11] of 100 µg/mL and an MIC [12] of 0.2 µg/mL. It also gave an MIC [13] of 1.6 µg/mL, an MIC [14] of 0.4 µg/mL and an MIC [15] of at most 0.1 µg/mL. For the same compound, the MIC [16] was at most 0.1 µg/mL, the MIC [17] was 0.4 µg/mL and the MIC [18] was 0.4 µg/mL. It also gave an MIC [19] of 0.4 µg/mL, an MIC [20] of 6.2 µg/mL and an MIC [21] of 0.2 µg/mL. It also gave an MIC [22] of 0.4 µg/mL, an MIC [23] of 0.2 µg/mL and an MIC [24] of 0.4 µg/mL. The MIC [25] was 1.6 µg/mL, the MIC [26] was 0.4 µg/mL and the MIC [27] was at most 0.1 µg/mL. It also gave an MIC [28] of 0.2 µg/mL, an MIC [29] of 0.4 µg/mL and an MIC [30] of 0.4 µg/mL. The MIC [31] was 0.2 µg/mL, the MIC [32] was 0.2 µg/mL and the MIC [33] was 0.8 µg/mL. It also gave an MIC [34] of 0.2 µg/mL, an MIC [35] of 50 µg/mL and an MIC [36] of 0.8 µg/mL. It also gave an MIC [37] of 1.6 µg/mL, an MIC [38] of 1.6 µg/mL and an MIC [39] of 0.2 µg/mL. The MIC [40] was 50 µg/mL, the MIC [41] was at most 0.1 µg/mL and the MIC [42] was 12.5 µg/mL. It also gave an MIC [43] of at most 0.1 µg/mL, an MIC [44] of 0.8 µg/mL and an MIC [45] of 0.8 µg/mL. The MIC [46] was at most 0.1 µg/mL, the MIC [47] was 0.4 µg/mL and the MIC [48] was 12.5 µg/mL.
